In patent US4962112A, “7-(2-methyl-4-aminopyrrolidinyl)naphthryidine and quinoline compounds” (Abbott Laboratories, priority 1988, dated 1990):
≈ marks a conversion by molar mass, not a printed value. Read-outs that look alike come from different tables or passages of the source.

Key:
[1] = Aqueous solubility in Ringer's buffer at pH 7.5 (HPLC); type: physicochemical
Method: A known excess weight of the compound was shaken overnight with a known volume of Ringer's buffer (bicarbonate buffer containing sodium, potassium, calcium and magnesium ions, initially adjusted to pH 7.5). The contents were filtered, and the clear filtrate was analyzed after appropriate dilution using HPLC (UV absorbance detection).

[2] = tested on: E. faecalis; experiment: In vitro antibacterial activity, agar dilution MIC; type: cell-based; settings: Enterococcus faecalis, 18 h
[3] = tested on: S. agalactiae; experiment: In vitro antibacterial activity, agar dilution MIC; type: cell-based; settings: Streptococcus agalactiae, 18 h; S. agalactiae CMX 508 (Table 1)
[4] = tested on: S. pyogenes; experiment: In vitro antibacterial activity, agar dilution MIC; type: cell-based; settings: Streptococcus pyogenes, 18 h, S. pyogenes M79061-98
[5] = tested on: K. pneumoniae; experiment: In vitro antibacterial activity, agar dilution MIC; type: cell-based, Klebsiella pneumoniae
[6] = tested on: P. mirabilis; experiment: In vitro antibacterial activity, agar dilution MIC; type: cell-based; settings: Proteus mirabilis, 18 h
[7] = tested on: P. aeruginosa; experiment: In vitro antibacterial activity, agar dilution MIC; type: cell-based; settings: Pseudomonas aeruginosa, 18 h
[8] = tested on: E. coli; experiment: In vitro antibacterial activity, agar dilution MIC; type: cell-based; settings: Escherichia coli
Method: (§1) The in vitro antibacterial activity of the test compound was determined by conventional agar dilution procedures. The organisms were grown overnight in brain-heart infusion (BHI) broth (Difco 0037-01-6) at 36° C. Twofold dilutions of the stock solution ([…]) of the test compound were made in BHI agar obtain a test concentration ranging from […]. The plate was inoculated with approximately 10^4 organisms. It was then incubated at 36° C. for 18 h. the minimal inhibitory concentration was the lowest concentration of the test compound that yielded no visible growth on the plate.

[9] = tested on: H. influenza; experiment: In vitro antibacterial activity, agar dilution MIC; type: cell-based; settings: 18 h
Method: as §1

[10] = tested on: L. bozemanni; experiment: In vitro antibacterial activity, agar dilution MIC; type: cell-based; settings: 18 h; L. bozemanni ATCC 33217
Method: as §1

[11] = tested on: S. aureus; experiment: In vitro antibacterial activity, agar dilution MIC; type: cell-based; settings: Staphylococcus aureus
Method: as §1

[12] = tested on: N. gonorrhoeae; experiment: In vitro antibacterial activity, agar dilution MIC; type: cell-based; settings: Neisseria gonorrhoeae, 18 h
[13] = tested on: L. pneumophila; experiment: microbe, parasite or virus in culture; type: cell-based; settings: Legionella pneumophila
[14] = tested on: B. fragilis; experiment: In vitro antibacterial activity, agar dilution MIC; type: cell-based; settings: Bacteroides fragilis
[15] = tested on: C. difficile; experiment: In vitro antibacterial activity, agar dilution MIC; type: cell-based; settings: Clostridioides difficile
[16] = Oral pharmacokinetics, blood level by disk agar diffusion bioassay; type: in vivo, Mice; settings: for serum concentrations / blood levels (in words): versus analogs A and B at 100 mg/kg; for Blood Level of Compound: oral 100 mg/kg
Method: Mice were administered the quantity of compound indicated orally, as a single dose. At the specified time intervals, blood was collected from groups of five mice. All samples were assayed by a disk agar diffusion bioassay procedure. Bacillus subtilis 6633 or Klebsiella pneumoniae 10032 were used as the assay organisms, and seek agar medium No. 1 (BBL Microbiology Systems; Cockeysville, MD) was the growth medium. The plates were incubated at 32° C for 18 h and read with an image analyzer (Optomax Inc.).

[17] = Klebsiella pneumoniae, 18 h, K. pneumoniae CMX 724A, read-out: MIC
[18] = ATCC25922, 18 h, E. coli ATCC 25922
[19] = H. influenza 588A, read-out: MIC
[20] = ATCC25923, 18 h, S. aureus ATCC 25923
[21] = ATCC9689, 18 h, C. difficile ATCC 9689
[22] = ATCC17857, 18 h, C. difficile ATCC 17857
[23] = compared with 2-unsubstituted aminopyrrolidine analogs

## CC1CC(N)CN1c1nc2c(cc1F)c(=O)c(C(=O)O)cn2-c1ccc(F)cc1F (stereo not drawn) [Epimer of Example 2]
[1]; at pH 7.5 in Ringer's buffer
  solubility: 340 µg/mL (≈ 813 µM)

## CC1CC(N)CN1c1cc2c(cc1F)c(=O)c(C(=O)O)cn2-c1ccc(F)cc1F (stereo not drawn) [Epimer of Example 6]
[1]; at pH 7.5 in Ringer's buffer
  solubility: 182 µg/mL (≈ 436 µM)

## C[C@H]1C[C@H](N)CN1c1nc2c(cc1F)c(=O)c(C(=O)O)cn2-c1ccc(F)cc1F [Example 2, (2'S,4'S)-7-(4'-Amino-2'-methylpyrrolidin-1'-yl)-1-(o,p-difluorophenyl)-1,4-dihydro-6-fluoro-4-oxo-1,8-naphthyridine-3-Carboxylic Acid]
[2]; E. faecalis CMX 729G
  MIC: 0.25 µg/mL (≈ 0.598 µM)
[2]; E. faecalis GYR 1166
  MIC: 0.5 µg/mL (≈ 1.2 µM)
[3]
  MIC: 0.12 µg/mL (≈ 0.287 µM)
[4]
  MIC: 0.25 µg/mL (≈ 0.598 µM)
[5]; K. pneumoniae CMX 735A
  MIC: 0.06 MCG/ML
[5]; [17]
  MIC: 0.06 µg/mL (≈ 0.143 µM)
[6]; P. mirabilis CMX 704F
  MIC: 0.25 µg/mL (≈ 0.598 µM)
[6]; P. mirabilis CMX 729B
  MIC: 0.25 µg/mL (≈ 0.598 µM)
[7]; P. aeruginosa A 5005
  MIC: 0.5 µg/mL (≈ 1.2 µM)
[7]; P. aeruginosa CFS 350F
  MIC: 0.5 µg/mL (≈ 1.2 µM)
[7]; P. aeruginosa CFS 387C
  MIC: 0.5 µg/mL (≈ 1.2 µM)
[7]; P. aeruginosa CMX 719A
  MIC: 2 µg/mL (≈ 4.78 µM)
[8]; 18 h, E. coli CMX 733
  MIC: 0.03 µg/mL (≈ 0.0717 µM)
[8]; 18 h, E. coli CMX 744A
  MIC: 0.03 µg/mL (≈ 0.0717 µM)
[8]; 18 h, E. coli CMX 756
  MIC: 0.03 µg/mL (≈ 0.0717 µM)
[8]; [18]
  MIC: 0.03 µg/mL (≈ 0.0717 µM)
[9]; H. influenza 504
  MIC: 0.008 µg/mL (≈ 0.0191 µM)
[9]; H. influenza 519A
  MIC: 0.008 µg/mL (≈ 0.0191 µM)
[9]; H. influenza 566A
  MIC: 0.008 µg/mL (≈ 0.0191 µM)
[9]; [19]
  MIC: 0.008 µg/mL (≈ 0.0191 µM)
[10]
  MIC: 0.25 µg/mL (≈ 0.598 µM)
[11]; 18 h, S. aureus CMX 705
  MIC: 0.03 µg/mL (≈ 0.0717 µM)
[11]; 18 h, S. aureus CMX 730A
  MIC: 0.03 µg/mL (≈ 0.0717 µM)
[11]; 18 h, S. aureus GYR 1162
  MIC: 0.03 µg/mL (≈ 0.0717 µM)
[11]; [20]
  MIC: 0.06 µg/mL (≈ 0.143 µM)
[12]; N. gonorrhoeae 35F AMPI
  MIC: 0.004 µg/mL (≈ 0.00956 µM)
[12]; N. gonorrhoeae CMX 591
  MIC: 0.06 µg/mL (≈ 0.143 µM)
[13]; 18 h
  MIC: 0.25 µg/mL (≈ 0.598 µM)
[13]; ATCC33152, 18 h
  MIC: 0.25 µg/mL (≈ 0.598 µM)
[14]; 18 h, B. fragilis AT25285
  MIC: 0.5 µg/mL (≈ 1.2 µM)
[14]; UC2, 18 h, B. fragilis UC-2
  MIC: 0.5 µg/mL (≈ 1.2 µM)
[15]; [21]
  MIC: 1 µg/mL (≈ 2.39 µM)
[15]; [22]
  MIC: 1 µg/mL (≈ 2.39 µM)
[1]; at pH 7.5 in Ringer's buffer
  AQUEOUS SOLUBILITY: 0.15 mg/mL
[1]; [23]
  solubility properties (in words): significantly improved aqueous solubility properties
[16]; [23]
  oral absorption properties (in words): greatly improved oral absorption properties
[16]; mouse, blood, mice, oral 25 mg/kg, t = 0.5 h, read-out: Blood Level of Compound
  concentration at 0.5 h: 5900 ng/mL
[16]; mouse, blood, mice, oral 25 mg/kg, t = 1.0 h, read-out: Blood Level of Compound
  concentration at 1 h: 3200 ng/mL
[16]; mouse, blood, mice, oral 25 mg/kg, t = 2.0 h, read-out: Blood Level of Compound
  concentration at 2 h: 3300 ng/mL
[16]; mouse, blood, mice, oral 25 mg/kg, t = 3.0 h, read-out: Blood Level of Compound
  concentration at 3 h: 2800 ng/mL
[16]; mouse, blood, mice, oral 25 mg/kg, t = 6.0 h, read-out: Blood Level of Compound
  concentration at 6 h: 1300 ng/mL
[16]; mouse, blood, mice, oral 25 mg/kg, t = 24.0 h, read-out: Blood Level of Compound
  concentration at 24 h: 200 ng/mL
[16]; oral 25 mg/kg
  serum concentrations / blood levels (in words): still achieve better blood
[16]; oral 25 mg/kg, listed as Compound 2
  serum concentrations / blood levels (in words): higher serum concentrations

## NC1CCN(c2nc3c(cc2F)c(=O)c(C(=O)O)cn3-c2ccc(F)cc2F)C1 (stereo not drawn) [Example A, 7-(3-Amino-pyrrolidin-1-yl)-1-(2,4-difluorophenyl)-1,4-dihydro-6-fluoro--oxo-1,8-naphthyridine-3-carboxylic acid, reference compound]
[2]; E. faecalis CMX 729G
  MIC: 0.25 µg/mL (≈ 0.618 µM)
[2]; E. faecalis GYR 1166
  MIC: 0.5 µg/mL (≈ 1.24 µM)
[3]
  MIC: 0.12 µg/mL (≈ 0.297 µM)
[4]
  MIC: 0.25 µg/mL (≈ 0.618 µM)
[5]; K. pneumoniae CMX 735A
  MIC: 0.06 MCG/ML
[5]; [17]
  MIC: 0.06 µg/mL (≈ 0.148 µM)
[6]; P. mirabilis CMX 704F
  MIC: 0.25 µg/mL (≈ 0.618 µM)
[6]; P. mirabilis CMX 729B
  MIC: 0.12 µg/mL (≈ 0.297 µM)
[7]; P. aeruginosa A 5005
  MIC: 0.5 µg/mL (≈ 1.24 µM)
[7]; P. aeruginosa CFS 350F
  MIC: 0.5 µg/mL (≈ 1.24 µM)
[7]; P. aeruginosa CFS 387C
  MIC: 1 µg/mL (≈ 2.47 µM)
[7]; P. aeruginosa CMX 719A
  MIC: 2 µg/mL (≈ 4.95 µM)
[8]; 18 h, E. coli CMX 733
  MIC: 0.03 µg/mL (≈ 0.0742 µM)
[8]; 18 h, E. coli CMX 744A
  MIC: 0.03 µg/mL (≈ 0.0742 µM)
[8]; 18 h, E. coli CMX 756
  MIC: 0.03 µg/mL (≈ 0.0742 µM)
[8]; [18]
  MIC: 0.03 µg/mL (≈ 0.0742 µM)
[9]; H. influenza 504
  MIC: 0.15 µg/mL (≈ 0.371 µM)
[9]; H. influenza 519A
  MIC: 0.15 µg/mL (≈ 0.371 µM)
[9]; H. influenza 566A
  MIC: 0.15 µg/mL (≈ 0.371 µM)
[9]; [19]
  MIC: 0.008 µg/mL (≈ 0.0198 µM)
[10]
  MIC: 0.5 µg/mL (≈ 1.24 µM)
[11]; 18 h, S. aureus CMX 705
  MIC: 0.03 µg/mL (≈ 0.0742 µM)
[11]; 18 h, S. aureus CMX 730A
  MIC: 0.03 µg/mL (≈ 0.0742 µM)
[11]; 18 h, S. aureus GYR 1162
  MIC: 0.03 µg/mL (≈ 0.0742 µM)
[11]; [20]
  MIC: 0.03 µg/mL (≈ 0.0742 µM)
[12]; N. gonorrhoeae 35F AMPI
  MIC: 0.004 µg/mL (≈ 0.00989 µM)
[12]; N. gonorrhoeae CMX 591
  MIC: 0.06 µg/mL (≈ 0.148 µM)
[13]; 18 h
  MIC: 0.25 µg/mL (≈ 0.618 µM)
[13]; ATCC33152, 18 h
  MIC: 0.25 µg/mL (≈ 0.618 µM)
[14]; 18 h, B. fragilis AT25285
  MIC: 0.4 µg/mL (≈ 0.989 µM)
[14]; UC2, 18 h, B. fragilis UC-2
  MIC: 0.8 µg/mL (≈ 1.98 µM)
[15]; [21]
  MIC: 1.6 µg/mL (≈ 3.96 µM)
[15]; [22]
  MIC: 0.8 µg/mL (≈ 1.98 µM)
[1]; at pH 7.5 in Ringer's buffer
  solubility: 8 µg/mL (≈ 19.8 µM)
[16]; mice, t = 1.0 h
  Blood Level of Compound: 2300 ng/mL
[16]; mice, t = 2.0 h
  Blood Level of Compound: 1700 ng/mL
[16]; mice, t = 3.0 h
  Blood Level of Compound: 1700 ng/mL
[16]; mice, t = 6.0 h
  Blood Level of Compound: 900 ng/mL
